From patent US20070299047A1, “Combination of Organic Compounds” (priority 2004, published 2007)

Assays:
[1] = tested on: ob/ob mice; assay: Food intake in ob/ob mice after seven days of treatment; assay type: in vivo; settings: 5 mg/kg/day
[2] = tested on: Chrna2 (cholinergic receptor, neuronal nicotinic, alpha polypeptide 2); assay: Chrna2 gene expression in the duodenum of treated ob/ob mice; assay type: in vivo; settings: p<0.01

Cc1oc(-c2ccc(C(F)(F)F)cc2)nc1COc1ccc(S(=O)(=O)N2c3ccccc3C[C@@H]2C(=O)O)cc1 [(R)-1-{4-[5-methyl-2-(4-trifluoromethyl-phenyl)-oxazol-4-ylmethoxy]-benzenesulfonyl}-2,3-dihydro-1H-indole-2-carboxylic acid]
daily food intake down by ([1]; by day 7, p<0.01): 50%
food intake compared to vehicle ([1]; starting on day 3): significantly lowered food intake
Chrna2 expression in the duodenum increased by ([2]; after 1 day of treatment): 15 fold
Chrna2 expression in the duodenum increased by ([2]; after 2 days of treatment): 11 fold
Chrna2 expression in the duodenum increased by ([2]; after 7 days of treatment): ~140 fold
